Laboratory results from paper PMC4069242 (Clinical and experimental allergy : journal of the British …, 2014).
Where no end group is shown, it is not given here.

Biological target: DR04:01 protein (Homo sapiens, UniProt P01903+P01911, A100K/A169T/F76Y/I96L/K127E/L162R/M171V/N62H/P40V/Q125Y/R42H/S133A/S149N/S66Y/V115G/V209L/W38E)
Experiment: Peptide binding assay

Row | Compound | IC50
1 | CC[C@H](C)[C@H](NC(=O)[C@@H](NC(=O)[C@H](CC(=O)O)NC(=O)[C@H](CCC(=O)O)NC(=O)[C@H](C)NC(=O)[C@H](CCC(=O)O)NC(=O)[C@@H](N)[C@@H](C)O)C(C)C)C(=O)N1CCC[C@H]1C(=O)N[C@@H](CCC(=O)O)C(=O)NCC(=O)N[C@@H](Cc1c[nH]c2ccccc12)C(=O)N[C@@H](CCCCN)C(=O)N[C@@H](C)C(=O)N[C@@H](CC(=O)O)C(=O)N[C@H](C(=O)N[C@@H](CO)C(=O)N[C@@H](Cc1ccc(O)cc1)C(=O)N[C@@H](CCC(=O)O)C(=O)N[C@@H](CO)C(=O)N[C@@H](CCCCN)C(=O)O)[C@@H](C)O [Phl p 1 221-240] | 2920 nM
2 | AAFRTAATAADAA [Hor v 5a 167-186] | 970 nM
3 | AAYRTAATAANAA [Lol p 5a 167-186] | 532 nM
4 | DSYKFIPTLVAAV [Lol p 5a 199-218] | 410 nM
5 | EEPIAPYHFDLSGHAFGAMA [Phl p 1 97-116] | 275 nM
6 | EEPIAPYHFDLSGHAFGSMA [Lol p 1 97-116] | 435 nM
7 | ESYKFIPALEAAV [Hor v 5a 199-218] | 990 nM
8 | ESYKFIPALEAAV [Phl p 5a 199-218] | 970 nM
9 | SEFEDVIPEGWKADTSYSAK [Lol p 1 221-240] | 2920 nM
10 | SEVEDVIPEGWKADTSYEAK [Dac g 1 221-240] | 177 nM

Stronger by IC50, values ahead:

Row | IC50 | Compound
11 | 116 nM | AAFRIAATAANAA [Holl 5a 167-186]
12 | 50 nM | AAYKIAATAANAA [Dac g 5a 167-186]
13 | 105 nM | EAYKFIPSLETAV [Holl 5a 199-218]
14 | 74.6 nM | ESYKFIPTLEAAV [Dac g 5a 199-218]
15 | 51 nM | ETYKFIPSLEAAV [Pha a 5a 199-218]
